# Reference: patent publication US10368545B2, “Substituted 2-thioimidazolylcarboxamides as pesticides” (BAYER CROPSCIENCE AKTIENGESELLSCHAFT, priority 2015, dated 2019)
# Tested on: not listed separately
# Assay: log P by HPLC on reversed-phase C18 columns (OECD Guideline 117)
# Assay type: physicochemical
# Details: method [a]
# Procedure: The log P values were determined in accordance with OECD Guideline 117 (EC Directive 92/69/EEC) by HPLC (high-performance liquid chromatography) using reversed-phase (RP) columns (C18), by the following methods:
# [a] The LC-MS determination in the acidic range was carried out at pH 2.7 with 0.1% aqueous formic acid and acetonitrile (contains 0.1% formic acid) as mobile phases; linear gradient from 10% acetonitrile to 95% acetonitrile.
# [b] LC-MS determination in the neutral range was carried out at pH 7.8 with 0.001 molar aqueous ammonium hydrogencarbonate solution and acetonitrile as mobile phases; linear gradient from 10% acetonitrile to 95% acetonitrile.
row,Compound,logP[a]
1,CN(C(=O)c1cnc(SCc2ncccn2)n1C)c1cccnc1 [I-A-112],0.56
2,CN(C(=O)c1cnc(SCc2cnccn2)n1C)c1cccnc1 [I-A-113],0.66
3,CN(C(=O)c1cnc(SCc2ccncc2)n1C)c1cccnc1 [I-A-116],0.16
4,CN(C(=O)c1cnc(SCc2ccccn2)n1C)c1cccnc1 [I-A-117],0.63
5,CN(C(=O)c1cnc(SCc2ccc(Cl)nc2)n1C)c1cccnc1 [I-A-122],1.37
6,CN(C(=O)c1cnc(SCc2c(Cl)cccc2C(F)(F)F)n1C)c1cccnc1 [I-A-126],2.47
7,COc1cc(OC)nc(CSc2ncc(C(=O)N(C)c3cccnc3)n2C)n1 [I-A-128],1.41
8,CN(C(=O)c1cnc([S+]([O-])Cc2ccccc2)n1C)c1cccnc1 (stereo not shown) [I-A-130],1.18
9,CN(C(=O)c1cnc(Sc2nc3ccccc3n2C)n1C)c1cccnc1 [I-A-134],1.27
10,Cc1nnc(Sc2ncc(C(=O)N(C)c3cccnc3)n2C)o1 [I-A-135],0.62
11,CCn1c(Sc2ncc(C(=O)N(C)c3cccnc3)n2C)nnc1C(F)(F)F [I-A-137],1.41
12,CN(C(=O)c1cnc(Sc2nnc(C(F)(F)F)n2C)n1C)c1cccnc1 [I-A-138],1.12
13,CN(C(=O)c1cnc(Sc2nnc(C(F)F)n2C)n1C)c1cccnc1 [I-A-139],0.87
14,CN(C(=O)c1cnc(Sc2nnc(-c3ccccc3)s2)n1C)c1cccnc1 [I-A-140],1.92
15,CN(C(=O)c1cnc(Sc2ncc(-c3ccccc3)n2C)n1C)c1cccnc1 [I-A-141],1.39
16,Cc1nc(Sc2ncc(C(=O)N(C)c3cccnc3)n2C)oc1C [I-A-142],1.31
17,CCn1c(C(=O)N(C)c2cccnc2)cnc1Sc1ncccn1 [I-A-146],1.11

# Same assay, conditions: method [b]
row,Compound,logP[b]
1,CN(C(=O)c1cnc(SCc2ncccn2)n1C)c1cccnc1 [I-A-112],0.85
2,CN(C(=O)c1cnc(SCc2cnccn2)n1C)c1cccnc1 [I-A-113],0.93
3,CN(C(=O)c1cnc(SCc2ccncc2)n1C)c1cccnc1 [I-A-116],1.11
4,CN(C(=O)c1cnc(SCc2ccccn2)n1C)c1cccnc1 [I-A-117],1.16
5,CN(C(=O)c1cnc(SCc2ccc(Cl)nc2)n1C)c1cccnc1 [I-A-122],1.58
6,CN(C(=O)c1cnc(SCc2c(Cl)cccc2C(F)(F)F)n1C)c1cccnc1 [I-A-126],2.54
7,COc1cc(OC)nc(CSc2ncc(C(=O)N(C)c3cccnc3)n2C)n1 [I-A-128],1.68
8,CN(C(=O)c1cnc(Sc2nc3ccccc3n2C)n1C)c1cccnc1 [I-A-134],1.56
9,Cc1nnc(Sc2ncc(C(=O)N(C)c3cccnc3)n2C)o1 [I-A-135],0.89
10,CCn1c(Sc2ncc(C(=O)N(C)c3cccnc3)n2C)nnc1C(F)(F)F [I-A-137],1.46
11,CN(C(=O)c1cnc(Sc2nnc(C(F)(F)F)n2C)n1C)c1cccnc1 [I-A-138],1.26
12,CN(C(=O)c1cnc(Sc2nnc(C(F)F)n2C)n1C)c1cccnc1 [I-A-139],1.00
13,CN(C(=O)c1cnc(Sc2nnc(-c3ccccc3)s2)n1C)c1cccnc1 [I-A-140],1.96
14,CN(C(=O)c1cnc(Sc2ncc(-c3ccccc3)n2C)n1C)c1cccnc1 [I-A-141],1.84
15,Cc1nc(Sc2ncc(C(=O)N(C)c3cccnc3)n2C)oc1C [I-A-142],1.47
16,CN(C(=O)c1cnc(Sc2nccn2C)n1C)c1cccnc1 [I-A-144],0.86
17,CCn1c(C(=O)N(C)c2cccnc2)cnc1Sc1ncccn1 [I-A-146],1.27

# Tested on: green peach aphid (Myzus persicae)
# Assay: Myzus persicae spray test (Chinese cabbage leaf discs)
# Assay type: in vivo
# Details: application rate 100 g/ha; after 5 or 6 days; Chinese cabbage leaf discs
# Procedure: Myzus persicae—Spray Test
# Solvent: 78 parts by weight of acetone • • 1.5 parts by weight of dimethylformamide
# (§1) Emulsifier: alkylaryl polyglycol ether
# (§2) To produce a suitable active compound preparation, 1 part by weight of active compound is dissolved using the stated parts by weight of solvent and made up with water containing an emulsifier concentration of 1000 ppm until the desired concentration is attained. To produce further test concentrations, the preparation is diluted with emulsifier-containing water.
# Discs of Chinese cabbage leaves (Brassica pekinensis) infested by all stages of the green peach aphid (Myzus persicae) are sprayed with an active compound preparation of the desired concentration.
# After 5 or 6 days, the efficacy in % is determined. 100% means that all the aphids were killed; 0% means that no aphids were killed.
row,Compound,efficacy (aphids killed)
1,CCn1c(C(=O)N(C)c2cccnc2)cnc1Sc1ncccn1 [I-A-146],90%

# Same assay, conditions: application rate 500 g/ha; after 5 or 6 days; Chinese cabbage leaf discs
row,Compound,efficacy (aphids killed)
1,CN(C(=O)c1cnc(SCc2ncccn2)n1C)c1cccnc1 [I-A-112],100%
2,CN(C(=O)c1cnc(SCc2cnccn2)n1C)c1cccnc1 [I-A-113],90%
3,CN(C(=O)c1cnc(SCc2ccncc2)n1C)c1cccnc1 [I-A-116],100%
4,CN(C(=O)c1cnc(SCc2ccccn2)n1C)c1cccnc1 [I-A-117],90%
5,CN(C(=O)c1cnc(SCc2ccc(Cl)nc2)n1C)c1cccnc1 [I-A-122],100%
6,CN(C(=O)c1cnc(SCc2c(Cl)cccc2C(F)(F)F)n1C)c1cccnc1 [I-A-126],100%
7,COc1cc(OC)nc(CSc2ncc(C(=O)N(C)c3cccnc3)n2C)n1 [I-A-128],90%
8,CN(C(=O)c1cnc([S+]([O-])Cc2ccccc2)n1C)c1cccnc1 (stereo not shown) [I-A-130],90%
9,CN(C(=O)c1cnc(Sc2nc3ccccc3n2C)n1C)c1cccnc1 [I-A-134],100%
10,Cc1nnc(Sc2ncc(C(=O)N(C)c3cccnc3)n2C)o1 [I-A-135],100%
11,CCn1c(Sc2ncc(C(=O)N(C)c3cccnc3)n2C)nnc1C(F)(F)F [I-A-137],90%
12,CN(C(=O)c1cnc(Sc2nnc(C(F)(F)F)n2C)n1C)c1cccnc1 [I-A-138],100%
13,CN(C(=O)c1cnc(Sc2nnc(C(F)F)n2C)n1C)c1cccnc1 [I-A-139],100%
14,CN(C(=O)c1cnc(Sc2nnc(-c3ccccc3)s2)n1C)c1cccnc1 [I-A-140],100%
15,CN(C(=O)c1cnc(Sc2ncc(-c3ccccc3)n2C)n1C)c1cccnc1 [I-A-141],100%
16,Cc1nc(Sc2ncc(C(=O)N(C)c3cccnc3)n2C)oc1C [I-A-142],90%
17,CN(C(=O)c1cnc(Sc2nccn2C)n1C)c1cccnc1 [I-A-144],100%

# Tested on: green peach aphid (Myzus persicae)
# Assay: Contrasting example: Myzus persicae spray test (MYZUPE)
# Assay type: in vivo
# Details: MYZUPE, 100 g ai/ha, 5 dat
# Procedure: Myzus persicae—Spray Test (MYZUPE)
# Solvents: 78.0 parts by weight of acetone • • 1.5 parts by weight of dimethylformamide
# as §1, §2
# Discs of Chinese cabbage leaves (Brassica pekinensis), infested by all stages of the green peach aphid (Myzus persicae) are sprayed with an active compound preparation of the desired concentration.
# After the desired period of time, the efficacy in % is determined. 100% means that all aphids were killed; 0% means that no aphids were killed.
row,Compound,% efficacy
1,CN(C(=O)c1cnc([S+]([O-])Cc2ccccc2)n1C)c1cccnc1 (stereo not shown) [I-A-130],90%
2,CN(C(=O)c1cnc(Sc2nc3ccccc3n2C)n1C)c1cccnc1 [I-A-134],100%
3,Cc1nnc(Sc2ncc(C(=O)N(C)c3cccnc3)n2C)o1 [I-A-135],90%
4,CCn1c(Sc2ncc(C(=O)N(C)c3cccnc3)n2C)nnc1C(F)(F)F [I-A-137],90%
5,CN(C(=O)c1cnc(Sc2nnc(C(F)(F)F)n2C)n1C)c1cccnc1 [I-A-138],90%
6,CN(C(=O)c1cnc(Sc2nnc(C(F)F)n2C)n1C)c1cccnc1 [I-A-139],90%
7,CN(C(=O)c1cnc(Sc2nnc(-c3ccccc3)s2)n1C)c1cccnc1 [I-A-140],70%
8,CN(C(=O)c1cnc(Sc2ncc(-c3ccccc3)n2C)n1C)c1cccnc1 [I-A-141],70%
9,Cc1nc(Sc2ncc(C(=O)N(C)c3cccnc3)n2C)oc1C [I-A-142],90%
10,CN(C(=O)c1cnc(Sc2nccn2C)n1C)c1cccnc1 [I-A-144],90%
11,CCn1c(C(=O)N(C)c2cccnc2)cnc1Sc1ncccn1 [I-A-146],90%

# Same assay, conditions: MYZUPE, 100 g ai/ha, 6 dat
row,Compound,% efficacy
1,CN(C(=O)c1cnc(SCc2ncccn2)n1C)c1cccnc1 [I-A-112],90%
2,CN(C(=O)c1cnc(SCc2cnccn2)n1C)c1cccnc1 [I-A-113],90%
3,CN(C(=O)c1cnc(SCc2ccncc2)n1C)c1cccnc1 [I-A-116],90%
4,CN(C(=O)c1cnc(SCc2ccccn2)n1C)c1cccnc1 [I-A-117],90%
5,CN(C(=O)c1cnc(SCc2ccc(Cl)nc2)n1C)c1cccnc1 [I-A-122],90%
6,CN(C(=O)c1cnc(SCc2c(Cl)cccc2C(F)(F)F)n1C)c1cccnc1 [I-A-126],70%
7,COc1cc(OC)nc(CSc2ncc(C(=O)N(C)c3cccnc3)n2C)n1 [I-A-128],90%
